Experimental findings from patent publication US6346389B1, “Method for selectively modulating the interactions between survivin and tubulin” (Yale University, priority 1998, dated 2002) are described below.

The test system of one assay is BaF3 cells. Put plainly: Apoptosis inhibition in stable BaF3 transfectants after IL-3 withdrawal. It counts as cell-based, mouse. How it is done: Apoptosis assay. […] Forty-eight hours after transfection, cells were fixed in 2% paraformaldehyde for 1 h and stained for β-galactosidase expression with 0.5 mg/ml 5-bromo-4-chloro-3-indolyl β-D-galactoside (Amersham), 5 mM potassium ferrocyanide, 5 mM potassium ferricyanide and 2 mM MgCl2 in PBS. β-Galactosidase-expressing cells were scored morphologically on an inverted microscope. In another series of experiments, BaF3 cells stably transfected with wild type or mutated Survivin constructs were washed, seeded in 96-well plates at 5×10^5/ml and cell viability was determined microscopically by trypan blue exclusion at increasing time intervals following IL-3 withdrawal, as described previously (Ambrosini, 1997).

A further assay deals with polymerized tubulin. Nature of the assay: Survivin-microtubule co-sedimentation through sucrose cushion with immunoblotting. It counts as binding, bovine. As to conditions: purified tubulin, taxol. As for the experimental part: Survivin-microtubule interaction. To determine a potential association of Survivin with tubulin, microtubules were assembled in vitro by taxol treatment using HeLa cell extracts or purified bovine brain tubulin. Subconfluent cultures of HeLa cells were harvested, washed once in phosphate buffered saline and once in MES buffer (0.1 M2-[morpholino]ethane sulphonic acid, 1 mM EGTA, 1 mM MgSO4, pH 6.6). The cell pellet was combined with 2 volumes of MES buffer and disrupted with a Dounce tissue grinder. The lysate was spun for 5 min at 12,000 rpm at 4° C. and the resulting supernatant was centrifuged at 164,000×g for 1 h at 4° C. in a TLA100 rotor (Beckman Instruments). For microtubule assembly, 200 μl aliquots of HeLa cell extracts (4 mg/ml protein) or 1 mg/ml of purified tubulin in MES buffer were supplemented with 1 mM GTP and incubated with 20 μM taxol or 40 μM nocodazole for 30 min at 37° C. Microtubule samples were then mixed with 4 μg of recombinant wild type Survivin or coil-less Survivin for an additional 30 min at 22° C. and loaded on 1 ml of 10% sucrose cushion in MES buffer containing 2 μM taxol. After centrifugation at 30,000×g for 30 min at 30° C. in a TLA100 rotor, equal amounts of the supernatants and pellets were analyzed by Coomassie blue staining and immunoblotting with the anti-Survivin antibody.
(Immunoblotting shows a protein as a band on a membrane.)

As for “Cys84→Ala: loss-of-function Survivin BIR mutant”, in the assay with BaF3 cells, the “Anti-apoptotic function following IL-3 withdrawal” value was “complete loss of anti-apoptotic function”. In addition, in the assay with polymerized tubulin, the “Association with taxol-treated tubulin” value was “quantitatively indistinguishable from that of wild type Survivin”.
